Measured values: patent publication US20090215893A1, “Parakeratosis inhibitor, pore-shrinking agent,or rough skin preventing/ameliorating agent, and external composition for skin” (Shiseido Company Ltd, priority 2005, published 2009)

Legend:
[1] = tested on: back of hairless mice (HR-1), 10 mass % oleic acid applied; assay: Inhibiting effect against rough skin induced by oleic acid application (transepidermal water loss); type: in vivo; set-up: ΔTEWL value: unit not given here; details: for ΔTEWL value: sample 3 mass %, three days, average of four animals, rough skin worse as value increases, control 12.0; for ΔTEWL value compared with the control aqueous solution / rough skin preventing/ameliorating effect: summary of Table 3, concentrations as in Table 3
How it was run: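 HR-1 hairless mice (four per group) received 100 μL 10 mass % oleic acid in ethanol on the back, then 100 μL sample solution, daily for three days. TEWL measured next day with a TEWA Meter; ΔTEWL versus before application, averaged over four animals, compared with aqueous control.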

[2] = tested on: cheek of a panel of 20 women; assay: Sensory irritation tests; type: in vivo, human; details: for Evaluation (sensory irritation, class of average rating): sample 3 mass %, 1 mL on cheek, evaluated for ten minutes, 20 women; for sensory irritation: summary of Table 4, β-alanine at 3%
How it was run: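 A cotton swab applied 1 mL of control or sample aqueous solution to opposite cheeks of 20 women. Irritation was scored 0–3 every 30 s for 10 min. Average ratings were graded A (<0.2), B (0.2–<1.0), C (1.0–<2.0) or D (≥2.0).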

[3] = tested on: back of a hairless mouse (HR-1), 10 mass % oleic acid applied; assay: Parakeratosis-inhibiting effect tests: oleic acid applied to hairless mouse back, macroscopic rough skin evaluation and parakeratosis value; type: in vivo; details: for Macroscopic evaluation (average of four animals) / Parakeratosis value (average of four animals): sample 3 mass %; for Macroscopic evaluation (average of four animals): 100 μL after oleic acid, three days, rough skin score 0.0 (no redness) to 2.0 (control); for Parakeratosis value (average of four animals): tape-stripped stratum corneum, hematoxylin, range 1.0 to 3.0, higher = parakeratosis advanced, control 2.0; for parakeratosis value / parakeratosis-inhibiting effect / rough skin preventing effect, based on stratum corneum peeling and redness: summary of Table 1, concentrations as in Table 1
How it was run: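 Hairless mouse backs given 100 μL of 10 mass % oleic acid in ethanol, then 100 μL of sample (mainly 3 mass % in 30% ethanol, pH 7.0 to 7.5), daily for three days. Rough skin scored 0.0 to 2.0 in 0.25 steps against control. Tape-stripped, hematoxylin-stained stratum corneum rated 1.0 to 3.0 for parakeratosis.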

[4] = tested on: pores of the cheeks of healthy human males; assay: Human pore-shrinking effect (replica assessment of cheek pores); type: in vivo; details: for Replica assessment (average of n = 5): sample 3 mass %, twice a day for one month, pore size rating 1-13, after application minus before application, control 0.3; for pore-shrinking effect: summary of Table 2, concentrations as in Table 2

Compound	ΔTEWL value [1]	ΔTEWL value compared with the control aqueous solution / rough skin preventing/ameliorating effect [1]	Evaluation (sensory irritation, class of average rating) [2]	sensory irritation [2]	Macroscopic evaluation (average of four animals) [3]	Parakeratosis value (average of four animals) [3]	parakeratosis value / parakeratosis-inhibiting effect [3]	rough skin preventing effect, based on stratum corneum peeling and redness [3]	Replica assessment (average of n = 5) [4]	pore-shrinking effect [4]
CN[C@H](C)C(=O)O [N-methyl-D-alanine]	8.2	significantly lower	A (average rating of less than 0.2)	no problems	1.2	1.3	reduced	seen	−0.7	seen
CN[C@H](CO)C(=O)O [N-methyl-D-serine]	8.0	significantly lower	A (average rating of less than 0.2)	no problems	1.4	1.5	reduced	seen	−1.5	seen
CN[C@@H](C)C(=O)O [N-methyl-L-alanine]	8.3	significantly lower	A (average rating of less than 0.2)	no problems	1.4	1.4	reduced	seen	−0.8	seen
CN[C@@H](CO)C(=O)O [N-methyl-L-serine]	7.9	significantly lower	A (average rating of less than 0.2)	no problems	1.3	1.2	reduced	seen	−1.2	seen
